From patent EP0036652A2, “Cephalosporin derivatives, process for their preparation, corresponding compositions, their use in the treatment of diseases and intermediates” (F. HOFFMANN-LA ROCHE & CO. Aktiengesellschaft, priority 1980, dated 1981)
In brackets after ≈: the same amount, converted by molar mass.

Columns and labels:
Enterobacter cloacae = test: In vitro activity: minimum inhibitory concentration; type: cell-based; conditions: β-lactamase-producing strain, read-out: Mindesthemmkonzentration
Excerpt: (§1) Zum Nachweis der antimikrobiellen Wirksamkeit der erwähnten Produkte wurden folgende repräsentative Vertreter getestet: • Produkt A: (6R,7R)-7-/2-(2-Amino-4-thiazolyl)-2-[(Z)-methoxyimino]acetamido/-3-/[(2,5-dihydro-6- methoxy-2-methyl-5-oxo-as-triazin-3-yl)-; thio]methyl/-8-oxo-5-thia-1-azabicyclo-[4.2.0]oct-2-en-2-carbonsäure-Natriumsalz • Produkt B: (6R,7R)-7-/2-(2-Amino-4-thiazolyl)-2-[(Z)-methoxyimino]acetamido/-3-/[(3-carboxy-1-methyl-1H-1,2,4-triazol-5-yl)thio]methyl/-8-oxo-5-thia-1-azabicyclo[4.2.0]oct-2-en-2-carbonsäure-Dinatriumsalz • Produkt C: (6R,7R)-7-[2-(2-Amino-4-thiazolyl)-2-((Z)-methoxyimino)acetamido]-3-[[[2,5-dihydro-2-methyl-5-oxo-6-[(pivaloyloxy)methoxy]-as- triazin-3-yl]thio]methyl]-[…]-1-azabicyclo[4.2.0]oct-2-en-2-carbonsäure-Natrium-. salz.
(§2) Aktivität in vitro: Mindesthemmkonzentration (µg/ml)

Escherichia coli = test: as above; type: cell-based; conditions: β-lactamase-producing strain, read-out: Mindesthemmkonzentration
Excerpt: as §1, §2

Haemophilus influenzae = test: as above; type: cell-based; conditions: read-out: Mindesthemmkonzentration
Excerpt: as §1, §2

Proteus mirabilis = test: as above; type: cell-based; conditions: β-lactamase-producing strain, read-out: Mindesthemmkonzentration
Excerpt: as §1, §2

Proteus vulgaris = test: as above; type: cell-based; conditions: β-lactamase-producing strain, read-out: Mindesthemmkonzentration
Excerpt: as §1, §2

[1] = system: Pseudomonas aeruginosa Stamm 1; test: as above; type: cell-based; conditions: STAMM1; Pseudomonas aeruginosa Stamm 1, β-lactamase-producing strain; read-out: Mindesthemmkonzentration
Excerpt: as §1, §2

[2] = system: Pseudomonas aeruginosa Stamm 2; test: as above; type: cell-based; conditions: STAMM2; Pseudomonas aeruginosa Stamm 2, β-lactamase-producing strain; read-out: Mindesthemmkonzentration
Excerpt: as §1, §2

Serratia marcescens = test: as above; type: cell-based; conditions: β-lactamase-producing strain, read-out: Mindesthemmkonzentration
Excerpt: as §1, §2

Staphylococcus aureus = test: as above; type: cell-based; conditions: read-out: Mindesthemmkonzentration
Excerpt: as §1, §2

Toxicity (LD100) = type: in vivo
Neisseria gonorrhoeae = test: In vitro activity: minimum inhibitory concentration; type: cell-based; conditions: read-out: Mindesthemmkonzentration
Excerpt: as §1, §2

Half-life in the rat = test: Half-life in the rat; set-up: species or system Ratte; conditions: in vivo, 20 mg/kg, after administration of 20 mg substance per kg body weight, read-out: Halbwertzeit
Excerpt: Verbindungen der Formel I, worin X die Gruppe (b) darstellt, sowie die entsprechenden Ester, Salze und Hydrate zeichnen sich durch eine lange Halbwertzeit aus, d.h. sie bleiben lange im Organismus und können dementsprechend effektiver ihre keimtötende Funktion ausüben. So zeigt z.B. das Dinatriumsalz von (6R,7R)-7-/-2-(2-Amino-4-thiazolyl)-2-[(Z)-me- thoxyimino]acetamido/-3-/[(3-carboxy-1-methyl-1H-1,2,4-triazol-5-yl)thio]methyl/-8-oxo-5-thia-1-azabieyclo[4.2.0]-oct-2-en-2-carbonsäure eine Halbwertzeit an der Ratte von 22 Min. nach Verabreichung von 20 mg Substanz pro kg Körpergewicht.

SMILES | MIC (Enterobacter cloacae) | MIC (Escherichia coli) | MIC (Haemophilus influenzae) | MIC (Proteus mirabilis) | MIC (Proteus vulgaris) | MIC [1] | MIC [2] | MIC (Serratia marcescens) | MIC (Staphylococcus aureus) | LD100 (Toxicity (LD100); i.v.) | LD100 (Toxicity (LD100); p.o.) | LD100 (Toxicity (LD100); s.c.) | MIC (Neisseria gonorrhoeae) | half-life (Half-life in the rat)
CO/N=C(\C(=O)N[C@@H]1C(=O)N2C(C(=O)O)=C(CSc3nc(=O)c(OCOC(=O)C(C)(C)C)nn3C)CS[C@H]12)c1csc(N)n1 [Produkt C, (6R,7R)-7-[2-(2-Amino-4-thiazolyl)-2-((Z)-methoxyimino)acetamido]-3-[[[2,5-dihydro-2-methyl-5-oxo-6-[(pivaloyloxy)methoxy]-as-triazin-3-yl]thio]methyl]-[…]-1-azabicyclo[4.2.0]oct-2-en-2-carbonsäure-Natrium-. salz] | 25 µg/mL (≈ 37.4 µM) | 0.1 µg/mL (≈ 0.15 µM) | 0.04 µg/mL (≈ 0.0598 µM) | 0.4 µg/mL (≈ 0.598 µM) | 0.2 µg/mL (≈ 0.299 µM) | 50 µg/mL (≈ 74.8 µM) | 50 µg/mL (≈ 74.8 µM) | 3.1 µg/mL (≈ 4.64 µM) | 1.6 µg/mL (≈ 2.39 µM) | >500 mg/kg | >5000 mg/kg | >4000 mg/kg | – | –
CO/N=C(\C(=O)N[C@@H]1C(=O)N2C(C(=O)O)=C(CSc3nc(C(=O)O)nn3C)CS[C@H]12)c1csc(N)n1 [Produkt B, (6R,7R)-7-/2-(2-Amino-4-thiazolyl)-2-[(Z)-methoxyimino]acetamido/-3-/[(3-carboxy-1-methyl-1H-1,2,4-triazol-5-yl)thio]methyl/-8-oxo-5-thia-1-azabicyclo[4.2.0]oct-2-en-2-carbonsäure-Dinatriumsalz] | 10 µg/mL (≈ 18 µM) | 0.08 µg/mL (≈ 0.144 µM) | 0.01 µg/mL (≈ 0.018 µM) | 0.01 µg/mL (≈ 0.018 µM) | 0.01 µg/mL (≈ 0.018 µM) | 40 µg/mL (≈ 72.1 µM) | 40 µg/mL (≈ 72.1 µM) | 0.16 µg/mL (≈ 0.289 µM) | 10 µg/mL (≈ 18 µM) | – | >5000 mg/kg | – | 0.0025 µg/mL (≈ 0.00451 µM) | 22 min
CO/N=C(\C(=O)N[C@@H]1C(=O)N2C(C(=O)O)=C(CSc3nc(=O)c(OC)nn3C)CS[C@H]12)c1csc(N)n1 [Produkt A, (6R,7R)-7-/2-(2-Amino-4-thiazolyl)-2-[(Z)-methoxyimino]acetamido/-3-/[(2,5-dihydro-6-methoxy-2-methyl-5-oxo-as-triazin-3-yl)- ; thio]methyl/-8-oxo-5-thia-1-azabicyclo-[4.2.0]oct-2-en-2-carbonsäure-Natriumsalz] | 1.2 µg/mL (≈ 2.11 µM) | 0.04 µg/mL (≈ 0.0703 µM) | 0.01 µg/mL (≈ 0.0176 µM) | 0.04 µg/mL (≈ 0.0703 µM) | 0.02 µg/mL (≈ 0.0352 µM) | 40 µg/mL (≈ 70.3 µM) | 80 µg/mL (≈ 141 µM) | 0.16 µg/mL (≈ 0.281 µM) | 2.5 µg/mL (≈ 4.4 µM) | > 500 mg/kg | >5000 mg/kg | >4000 mg/kg | 0.01 µg/mL (≈ 0.0176 µM) | –
